These results are taken from paper PMC3189179, “Rapid Development of New Protein Biosensors Utilizing Peptides Obtained via Phage Display” (PLoS ONE, 2011).

The Km is the concentration of substrate that gives half-maximal velocity. What is called Kd is the constant that tells how readily two partners part at equilibrium. A low value points to higher affinity. The kcat is the number of substrate molecules converted per active site and unit of time at saturation. Usually Ki stands for the dissociation constant of the complex between target and ligand, obtained from inhibition or displacement. Low readings indicate higher affinity, high ones lower affinity.

The target of data set [1] is T1, ALT (human liver) (Homo sapiens, UniProt P24298).
T1 construct: ALT (human liver) and lactate dehydrogenase (LDH) were obtained from Lee Biosolutions, Inc; purchased Lee Biosolutions, Inc. (St. Louis, Missouri); host or cells: human liver
T1 sequence (P24298 2-496 limits assumed): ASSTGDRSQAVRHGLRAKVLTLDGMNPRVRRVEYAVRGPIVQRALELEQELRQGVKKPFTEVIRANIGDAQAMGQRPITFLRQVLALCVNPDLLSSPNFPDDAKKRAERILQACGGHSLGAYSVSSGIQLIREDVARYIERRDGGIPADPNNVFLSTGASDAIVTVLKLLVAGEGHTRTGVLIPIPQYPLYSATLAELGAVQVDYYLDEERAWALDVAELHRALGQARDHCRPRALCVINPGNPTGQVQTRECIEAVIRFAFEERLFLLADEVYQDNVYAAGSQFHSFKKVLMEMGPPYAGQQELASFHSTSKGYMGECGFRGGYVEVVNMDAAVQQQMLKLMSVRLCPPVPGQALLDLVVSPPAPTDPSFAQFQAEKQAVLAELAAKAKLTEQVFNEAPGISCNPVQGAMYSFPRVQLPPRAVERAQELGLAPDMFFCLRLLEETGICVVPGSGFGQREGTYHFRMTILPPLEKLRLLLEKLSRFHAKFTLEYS
Put plainly: ELISA for phage clone binding to immobilized ALT. The settings on record: 10^5 to 10^11 pfu, triplicate, 405 nm, 1 hr room temperature. As for the experimental part:
To test whether or not the selected phage clones from the biopanning procedure could bind to ALT, ELISA assays were performed. Microplates were coated with ALT (2.6 µg/mL) overnight at 4°C, blocked with blocking buffer, and washed 6 times with TBST solution (containing 0.1% Tween 20). Varying amounts of amplified phage clones were added to each well and incubated for 1 hr at room temperature. After washing, HRP-conjugated anti-M13 monoclonal antibody (diluted 1∶5000 in blocking buffer) was added and incubated at room temperature for 1 hr. Following incubation and washing again with the same buffer, ABTS and H2O2 (30%, v/v) were added and the absorbance was measured after a 1 hr incubation with mild agitation at 405 nm with a microplate spectrophotometer (Molecular Devices, Sunnyvale, CA).
In order to estimate the apparent dissociation constant for the ALT5-8 clone, further ELISA experiments were performed with extended phage concentrations. The data were fit to a Langmuir isotherm using non-linear regression (SigmaPlot, San Jose, CA) and the Kd,app was determined.
(In general: ELISA stands for enzyme-linked immunosorbent assay.)

In data set [2] the target is T1, ALT (human liver). Put plainly: Biopanning of phage-displayed peptide library over immobilized ALT. Type of data set: binding. The following applies: 12 phage clones after fifth round of biopanning against ALT. The procedure:
ALT (2.6 µg/mL) was dissolved in NaHCO3 buffer (100 mM, pH 8.3) and transferred to the wells of polystyrene microplates. After overnight incubation with mild agitation at 4°C, the well surfaces were coated with ALT. The well surfaces were then blocked with blocking buffer (0.1 M NaHCO3 containing 2% BSA and 0.02% of NaN3) for 1 hr at 4°C, and washed 6 times with TBST (50 mM Tris-HCl pH 7.5, 150 mM NaCl, 0.1% Tween 20) to remove weakly bound ALT. […] Wells were washed 10 times with TBST to remove unbound phage. The bound phage were eluted with 100 µL of 0.2 M glycine-HCl (pH 2.2) and the elution was immediately neutralized with 15 µL Tris-HCl (1 M, pH 9.1) to prevent phage killing. The eluted phage were amplified in E. coli ER2738 and the phage were harvested by precipitation with NaCl/polyethylene glycol (20% (w/v) polyethylene glycol-8000 with 2.5 M NaCl). This biopanning process was repeated for five rounds. The concentration of Tween 20 in the washing step was increased from 0.1% in the first round of panning to 0.3% in the second round of panning and 0.5% in the final three rounds of panning. After each round of panning, the phage were titered using Luria-Bertani (LB) broth plates containing isopropyl β-D-thiogalactopyranoside (IPTG) and X-gal. After the fifth round of selection, twelve blue monocolonies were randomly picked and amplified for DNA sequencing.

In data set [3] the target is T1, ALT (human liver). As to the kind of experiment: Coupled enzyme assay (ALT/LDH, NADH depletion): peptide inhibition of ALT, bi-bi ping-pong fit with competitive inhibitor. Type of data set: biochemical. The procedure:
ALT enzyme kinetics were measured to determine the impact of the ALT5-8 peptide on the activity of the enzyme. Kinetic experiments were performed in a coupled assay where the pyruvate generated by ALT was reduced to lactate by LDH with the concomitant oxidation of NADH. The depletion of NADH was monitored by following its absorbance at 340 nm in UV-transparent microplates. […] The reactions were initiated by the addition of 330 U/L ALT and all measurements were made in triplicate. All stock solutions were prepared in 100 mM Tris-HCl buffer (pH 7.8), and all kinetic trials were conducted 300 µL at 37 °C. […] Free ALT5-8 peptide inhibitor (I) was added to the reactions at concentrations from 0–0.25 µM.

Data set [4] addresses T1, ALT (human liver). As to the kind of experiment: QCM binding of ALT to immobilized peptide. The following applies: ALT as compared to BSA and SA, 10 µg/mL each. The text has this:
All reagents used were analytical grade or higher unless otherwise stated. Escherichia coli strain ER2738, a host for M13 phage, and a polyvalent M13 phage display kit (Ph.D.-12) which contained random 12-mer peptides were obtained from New England Biolabs (Ipswich, MA). ALT (human liver) and lactate dehydrogenase (LDH) were obtained from Lee Biosolutions, Inc. (St. Louis, Missouri). Horseradish peroxidase (HRP) conjugated anti-M13 monoclonal antibody was from GE Healthcare (Piscataway, NJ). Tween 20, 2,2′-Azino-bis(3-ethylbenzothiazoline-6-sulfonic acid) diammonium salt (ABTS), streptavidin (SA) from Streptomyces avidinii, bovine serum albumin (BSA), L-cysteine hydrochloride (98%) and all other chemicals were purchased from Sigma-Aldrich (St. Louis, MO). Polystyrene microplates were from Pierce Biotechnology (Rockford, IL). The ALT5-8 peptide modified with a C-terminal cysteine (sequence: […]) was synthesized (>90% purity) by Genscript (Piscataway, NJ). Quartz crystals (AT-cut, 5 MHz) with Au deposited on both sides were obtained from Inficon (East Syracuse, New York). Buffer solutions (pH = 7.3) containing 0.01 M sodium phosphate and 0.1 M NaCl were used to make all protein (1–10 µg/mL) and peptide (0.1 mM) solutions for the QCM and EIS measurements. All solutions were prepared using Milli-Q water. […]

Data set [5] concerns the target T1, ALT (human liver). Put plainly: EIS detection of ALT with peptide-modified gold electrode. Type of data set: binding. The settings on record: biosensor made from the peptide coupled with EIS detection. The procedure: All electrochemical measurements were performed with a µAUTOLAB potentiostat (Type III, FRA2, Metrohm Autolab, Netherlands). A gold wire (dia. 1 mm) sealed in epoxy was used as a working electrode and a platinum mesh was used as a counter electrode. All potentials measured are reported versus a Ag/AgCl reference electrode. Both cyclic voltammetry and EIS measurements were conducted in a solution of 1 mM ferro/ferricyanide in 0.1 M sodium perchlorate.
CV and EIS were performed as previously described. Briefly, the gold electrodes were prepared in 0.1 mM peptide solution for 1 hr, followed by backfilling in 1 mM cysteine solution for 2 hr to obtain a Au-Pep-Cys electrode. The Au-Pep-Cys electrodes were incubated in ALT solution for 1 hr before CV and EIS measurements. After each electrode preparation step, the electrode is removed and placed into solutions of 1 mM ferro/ferricyanide in 0.1 M NaClO4for analysis. Therefore, all the electrochemical measurements were conducted in the ferro/ferricyanide solution which eliminates the effect of any potential viscosity differences between the sample solutions. CV experiments were performed at a potential scan rate of 100 mV/s. Impedance spectra were recorded over a frequency range of 0.1–10^5 Hz. […] The impedance was recorded and a Nyquist plot was obtained. […]

The target in data set [6] is T1, ALT (human liver). As to the kind of experiment: Uninhibited ALT enzyme kinetics (coupled ALT/LDH assay). It is filed as biochemical. The settings on record: absence of peptide, pH 7.8, 37 °C, triplicate, bi-bi ping-pong fit (Eqn. 1). As for the experimental part: ALT enzyme kinetics were measured to determine the impact of the ALT5-8 peptide on the activity of the enzyme. Kinetic experiments were performed in a coupled assay where the pyruvate generated by ALT was reduced to lactate by LDH with the concomitant oxidation of NADH. The depletion of NADH was monitored by following its absorbance at 340 nm in UV-transparent microplates. […] Initial concentrations of pyridoxal 5′-phosphate, NADH, and LDH were 0.1 mM, 0.25 mM and 47 U/L respectively. The reactions were initiated by the addition of 330 U/L ALT and all measurements were made in triplicate. All stock solutions were prepared in 100 mM Tris-HCl buffer (pH 7.8), and all kinetic trials were conducted 300 µL at 37 °C.

Data set [7] concerns the target T2, alanine aminotransferase (Homo sapiens, UniProt P24298).
T2 chain: T1 sequence (P24298 2-496 limits assumed)
As to the kind of experiment: phage ELISA.

Substrate in data set [8]: C[C@H](N)C(=O)O
As to the kind of experiment: purified protein, by the assay type. The settings on record: other: substrate of ALT, absence of peptide, pH 7.8, 37 °C, triplicate, bi-bi ping-pong fit (Eqn. 1).

Data set [9] has as its target T2, alanine aminotransferase. Put plainly: enzyme inhibition kinetics.
Data set [10] has as its target T2, alanine aminotransferase. Put plainly: QCM.

Regarding LETEWDSLWYAP [ALT5-9], the “affinity of phage clone for immobilized ALT (in words)” value at ALT (human liver) [1] was “low affinity for ALT similar to that of the M13 control phage”. For the same molecule, the “Frequency of sequence among sequenced clones” value on ALT (human liver) [2] is 1/12.
For SNNLYPQRAVST [ALT4-3] the same measures were “low affinity for ALT similar to that of the M13 control phage” and 1/12.
Consider “WHWRNPDFWYLK [ALT5-8, 12-mer peptide selected by M13 phage display over ALT; tested on phage and as free peptide]”, for which the “affinity of phage clone for immobilized ALT (in words)” value at ALT (human liver) [1] was “dose-dependent affinity for the ALT protein”. In addition, on ALT (human liver) [3] (Lineweaver-Burk plots, with respect to alanine), the mode of inhibition result was “competitive inhibitor”. The “residual enzyme activity with peptide (in words)” value at ALT (human liver) [3] (peptide to protein ratio 2∶1) is “the enzyme was still quite active”. Moreover, on ALT (human liver) [4], the “selectivity (in words)” value was “selective for ALT as compared to BSA and SA”. In addition, the “limit of detection (LOD), EIS” value on ALT (human liver) [5] is given as 0.092 µg/mL. Further, at ALT (human liver) [2], the “Frequency of sequence among sequenced clones” value is 10/12.
With α-ketoglutarate [reference compound], on ALT (human liver) [6] (substrate of ALT, read-out: Michaelis constant KM), the Km turned out to be 90 ± 30 µM.
As for WHWRNPDFWYLK (displayed on M13 phage) [ALT5-8 peptide (phage-displayed)], in the data set with alanine aminotransferase [7], binding was characterised by a dissociation constant (Kd) of 85 nM.

B1: ALT (human liver) (Homo sapiens) (protein)
chain: T1 sequence (P24298 2-496 limits assumed)
In the case of B1, the kcat in the data set with ALT (human liver) [6] is 5.8 ± 0.2 s⁻¹. In addition, in data set [8], the Michaelis constant (Km) is 8000 ± 900 µM.
The molecule WHWRNPDFWYLK [ALT5-8 peptide] had a Ki in the data set with alanine aminotransferase [9] of 71 nM.
On to WHWRNPDFWYLKC (immobilized on gold via C-terminal cysteine) [ALT5-8 peptide (C-terminal Cys)], for which binding in the data set with alanine aminotransferase [10] was characterised by a dissociation constant (Kd) of 20.1 nM.
